According to ChEMBL document CHEMBL1914417 (Bioorg Med Chem Lett, 2011):
The source made the active and inactive calls. No cut-off for these calls is given here.

Key:
Cytochrome P450 1A2 = molecular target: T1, Cytochrome P450 1A2 (Homo sapiens, UniProt P05177); assay: Inhibition of CYP1A2; type: ADME
T1 sequence (P05177 whole entry): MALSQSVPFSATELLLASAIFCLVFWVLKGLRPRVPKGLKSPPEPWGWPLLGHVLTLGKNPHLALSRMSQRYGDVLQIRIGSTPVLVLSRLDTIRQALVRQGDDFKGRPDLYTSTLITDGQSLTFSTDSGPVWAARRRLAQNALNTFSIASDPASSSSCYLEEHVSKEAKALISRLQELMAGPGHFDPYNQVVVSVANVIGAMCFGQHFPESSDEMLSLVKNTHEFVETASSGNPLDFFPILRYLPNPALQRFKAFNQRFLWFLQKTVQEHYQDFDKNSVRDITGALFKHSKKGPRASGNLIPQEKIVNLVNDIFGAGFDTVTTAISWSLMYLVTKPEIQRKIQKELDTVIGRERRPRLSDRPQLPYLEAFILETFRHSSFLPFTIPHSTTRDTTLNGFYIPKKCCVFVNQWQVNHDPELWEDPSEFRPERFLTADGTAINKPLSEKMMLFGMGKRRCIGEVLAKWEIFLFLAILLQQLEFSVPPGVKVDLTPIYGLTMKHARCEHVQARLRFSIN

[1] = Plasma concentration in Sprague-Dawley rat at 10 mg/kg, po after 90 mins; type: ADME, organism-based; set-up: dose 10 mg/kg, route oral
[2] = Drug uptake in Sprague-Dawley rat brain at 10 mg/kg, po after 90 mins; type: ADME, organism-based; set-up: dose 10 mg/kg, route oral; settings: read-out: Drug uptake
[3] = Ratio of AUC in brain to AUC in blood in Sprague-Dawley rat at 10 mg/kg, po after 90 mins; type: ADME, organism-based; set-up: dose 10 mg/kg, route oral; settings: read-out: BPR
hERG (KCNH2) = hERG (KCNH2) (Homo sapiens, UniProt Q12809); assay: Inhibition of human ERG at 10 uM
[4] = AUC in rat at 10 mg/kg, po; type: ADME, organism-based; set-up: dose 10 mg/kg, route oral; settings: plasma
[5] = molecular target: T2, Muscarinic acetylcholine receptor M1 (Rattus norvegicus) (UniProt P08482); assay: Agonist activity at rat muscarinic M1 receptor expressed in CHO cells at 10 uM; type: functional, cell-based
T2 sequence (whole entry): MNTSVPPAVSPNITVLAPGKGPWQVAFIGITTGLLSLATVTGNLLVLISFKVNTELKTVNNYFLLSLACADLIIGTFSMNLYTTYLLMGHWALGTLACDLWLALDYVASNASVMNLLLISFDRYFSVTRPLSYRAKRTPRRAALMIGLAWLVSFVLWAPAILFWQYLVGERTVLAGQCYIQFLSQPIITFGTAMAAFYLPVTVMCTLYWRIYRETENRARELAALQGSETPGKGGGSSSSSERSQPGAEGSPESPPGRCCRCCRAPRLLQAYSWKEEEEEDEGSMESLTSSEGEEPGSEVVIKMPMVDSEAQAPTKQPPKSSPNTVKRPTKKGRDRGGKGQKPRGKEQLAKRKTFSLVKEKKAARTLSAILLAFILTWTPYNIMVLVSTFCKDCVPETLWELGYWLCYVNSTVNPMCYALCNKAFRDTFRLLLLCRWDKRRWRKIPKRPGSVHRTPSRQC

[6] = Clearance in rat at 1 mg/kg, iv and 10 mg/kg, po; type: ADME, organism-based; settings: in vivo
D(2) dopamine receptor = D(2) dopamine receptor (Homo sapiens, UniProt P14416); assay: Antagonist activity at dopamine D2 receptor; type: functional
Plasma [7] = assay: Fraction unbound in rat plasma; type: ADME, cell-free
[8] = Half life in rat 1 mg/kg, iv and 10 mg/kg, po; type: ADME, organism-based; settings: in vivo
Cytochrome P450 2D6 = Cytochrome P450 2D6 (Homo sapiens, UniProt P10635); assay: Inhibition of CYP2D6; type: ADME
[9] = Volume of distribution at steady state in rat 1 mg/kg, iv and 10 mg/kg, po; type: ADME, organism-based; settings: in vivo, read-out: Vdss
[10] = molecular target: T3, Muscarinic acetylcholine receptor M2 (Rattus norvegicus, UniProt P10980); assay: Agonist activity at rat muscarinic M2 receptor expressed in CHO cells; type: functional, cell-based
T3 sequence (P10980 whole entry): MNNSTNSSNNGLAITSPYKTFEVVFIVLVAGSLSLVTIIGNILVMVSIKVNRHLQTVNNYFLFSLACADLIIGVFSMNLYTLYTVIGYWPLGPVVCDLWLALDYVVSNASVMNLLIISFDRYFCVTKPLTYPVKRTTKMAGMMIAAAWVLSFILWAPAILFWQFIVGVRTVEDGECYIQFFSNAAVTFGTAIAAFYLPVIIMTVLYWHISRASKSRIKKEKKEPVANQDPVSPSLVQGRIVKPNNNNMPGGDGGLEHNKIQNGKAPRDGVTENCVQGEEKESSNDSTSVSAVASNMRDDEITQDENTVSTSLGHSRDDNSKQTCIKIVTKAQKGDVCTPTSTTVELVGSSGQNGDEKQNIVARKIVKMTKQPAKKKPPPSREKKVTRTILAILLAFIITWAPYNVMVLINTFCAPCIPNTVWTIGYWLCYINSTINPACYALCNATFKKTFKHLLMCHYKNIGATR

Plasma [11] = assay: Fraction unbound in human plasma; type: ADME, cell-free
[12] = molecular target: T4, Muscarinic acetylcholine receptor M5 (Homo sapiens, UniProt P08912); assay: Agonist activity at human recombinant muscarinic M5 receptor by HTS cell based assay; type: functional
T4 sequence (P08912 whole entry): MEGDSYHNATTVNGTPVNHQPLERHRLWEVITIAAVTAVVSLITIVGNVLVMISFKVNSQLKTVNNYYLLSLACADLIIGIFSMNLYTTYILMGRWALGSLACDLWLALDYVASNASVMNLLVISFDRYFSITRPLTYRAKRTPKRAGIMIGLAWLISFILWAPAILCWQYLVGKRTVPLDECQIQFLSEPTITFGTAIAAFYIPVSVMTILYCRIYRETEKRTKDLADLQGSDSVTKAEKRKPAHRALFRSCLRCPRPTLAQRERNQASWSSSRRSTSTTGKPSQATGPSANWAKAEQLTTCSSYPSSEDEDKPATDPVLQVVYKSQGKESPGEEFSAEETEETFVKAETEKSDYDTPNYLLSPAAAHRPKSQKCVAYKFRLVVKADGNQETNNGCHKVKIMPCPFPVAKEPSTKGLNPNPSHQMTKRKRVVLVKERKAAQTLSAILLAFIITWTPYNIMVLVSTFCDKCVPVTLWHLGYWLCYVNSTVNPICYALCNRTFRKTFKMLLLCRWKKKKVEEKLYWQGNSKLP

Rattus norvegicus = assay: Oral bioavailability in rat 10 mg/kg; type: ADME, organism-based; settings: in vivo
[13] = AUC in rat at 1 mg/kg, iv; type: ADME, organism-based; set-up: dose 1 mg/kg, route intravenous; settings: plasma
[14] = Potentiation of NMDA receptor-induced current in hippocampal CA1 pyramidal cells at 30 uM; type: tissue-based; settings: Hippocampus
Cytochrome P450 2C9 = Cytochrome P450 2C9 (Homo sapiens, UniProt P11712); assay: Inhibition of CYP2C9; type: ADME
Sequence of Cytochrome P450 2C9 (P11712 whole entry): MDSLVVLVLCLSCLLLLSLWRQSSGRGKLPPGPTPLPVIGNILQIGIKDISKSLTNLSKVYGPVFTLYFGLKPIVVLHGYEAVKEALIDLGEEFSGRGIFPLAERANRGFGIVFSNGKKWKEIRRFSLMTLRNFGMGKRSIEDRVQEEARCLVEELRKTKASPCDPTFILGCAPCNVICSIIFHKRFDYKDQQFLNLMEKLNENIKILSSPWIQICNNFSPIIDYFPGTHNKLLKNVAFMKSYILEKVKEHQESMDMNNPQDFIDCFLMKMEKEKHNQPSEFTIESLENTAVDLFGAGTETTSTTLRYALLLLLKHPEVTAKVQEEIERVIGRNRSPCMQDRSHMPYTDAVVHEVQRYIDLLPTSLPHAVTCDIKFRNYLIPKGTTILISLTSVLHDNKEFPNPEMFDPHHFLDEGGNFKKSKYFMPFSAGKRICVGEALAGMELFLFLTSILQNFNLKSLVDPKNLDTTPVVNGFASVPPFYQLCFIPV

Sequence of D(2) dopamine receptor (P14416 whole entry): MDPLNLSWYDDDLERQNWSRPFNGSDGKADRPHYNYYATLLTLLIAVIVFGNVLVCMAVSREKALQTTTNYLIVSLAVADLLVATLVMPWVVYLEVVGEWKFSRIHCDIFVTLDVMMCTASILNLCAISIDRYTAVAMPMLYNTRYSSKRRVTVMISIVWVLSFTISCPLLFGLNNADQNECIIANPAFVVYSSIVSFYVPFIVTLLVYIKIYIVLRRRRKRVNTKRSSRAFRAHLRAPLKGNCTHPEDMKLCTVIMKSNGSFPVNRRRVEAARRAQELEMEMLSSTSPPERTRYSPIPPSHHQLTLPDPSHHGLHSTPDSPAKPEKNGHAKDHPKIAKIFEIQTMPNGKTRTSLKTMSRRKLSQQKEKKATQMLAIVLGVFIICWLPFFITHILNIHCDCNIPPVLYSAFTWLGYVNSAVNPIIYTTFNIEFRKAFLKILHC
Sequence of Cytochrome P450 2D6 (P10635 whole entry): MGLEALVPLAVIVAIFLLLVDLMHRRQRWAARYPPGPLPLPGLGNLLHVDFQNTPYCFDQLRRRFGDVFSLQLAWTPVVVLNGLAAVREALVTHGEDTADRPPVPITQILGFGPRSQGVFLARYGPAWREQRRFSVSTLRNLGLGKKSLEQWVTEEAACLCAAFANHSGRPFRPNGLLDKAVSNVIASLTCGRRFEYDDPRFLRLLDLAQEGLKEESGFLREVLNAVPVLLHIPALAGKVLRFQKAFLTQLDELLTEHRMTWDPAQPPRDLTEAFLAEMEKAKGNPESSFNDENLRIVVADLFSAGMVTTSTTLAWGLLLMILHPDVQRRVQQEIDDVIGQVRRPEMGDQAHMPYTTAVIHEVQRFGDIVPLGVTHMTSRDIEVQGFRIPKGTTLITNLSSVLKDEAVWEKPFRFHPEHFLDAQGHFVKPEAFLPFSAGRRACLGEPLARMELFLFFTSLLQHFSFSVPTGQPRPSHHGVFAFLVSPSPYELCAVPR
Sequence of hERG (KCNH2) (Q12809 whole entry): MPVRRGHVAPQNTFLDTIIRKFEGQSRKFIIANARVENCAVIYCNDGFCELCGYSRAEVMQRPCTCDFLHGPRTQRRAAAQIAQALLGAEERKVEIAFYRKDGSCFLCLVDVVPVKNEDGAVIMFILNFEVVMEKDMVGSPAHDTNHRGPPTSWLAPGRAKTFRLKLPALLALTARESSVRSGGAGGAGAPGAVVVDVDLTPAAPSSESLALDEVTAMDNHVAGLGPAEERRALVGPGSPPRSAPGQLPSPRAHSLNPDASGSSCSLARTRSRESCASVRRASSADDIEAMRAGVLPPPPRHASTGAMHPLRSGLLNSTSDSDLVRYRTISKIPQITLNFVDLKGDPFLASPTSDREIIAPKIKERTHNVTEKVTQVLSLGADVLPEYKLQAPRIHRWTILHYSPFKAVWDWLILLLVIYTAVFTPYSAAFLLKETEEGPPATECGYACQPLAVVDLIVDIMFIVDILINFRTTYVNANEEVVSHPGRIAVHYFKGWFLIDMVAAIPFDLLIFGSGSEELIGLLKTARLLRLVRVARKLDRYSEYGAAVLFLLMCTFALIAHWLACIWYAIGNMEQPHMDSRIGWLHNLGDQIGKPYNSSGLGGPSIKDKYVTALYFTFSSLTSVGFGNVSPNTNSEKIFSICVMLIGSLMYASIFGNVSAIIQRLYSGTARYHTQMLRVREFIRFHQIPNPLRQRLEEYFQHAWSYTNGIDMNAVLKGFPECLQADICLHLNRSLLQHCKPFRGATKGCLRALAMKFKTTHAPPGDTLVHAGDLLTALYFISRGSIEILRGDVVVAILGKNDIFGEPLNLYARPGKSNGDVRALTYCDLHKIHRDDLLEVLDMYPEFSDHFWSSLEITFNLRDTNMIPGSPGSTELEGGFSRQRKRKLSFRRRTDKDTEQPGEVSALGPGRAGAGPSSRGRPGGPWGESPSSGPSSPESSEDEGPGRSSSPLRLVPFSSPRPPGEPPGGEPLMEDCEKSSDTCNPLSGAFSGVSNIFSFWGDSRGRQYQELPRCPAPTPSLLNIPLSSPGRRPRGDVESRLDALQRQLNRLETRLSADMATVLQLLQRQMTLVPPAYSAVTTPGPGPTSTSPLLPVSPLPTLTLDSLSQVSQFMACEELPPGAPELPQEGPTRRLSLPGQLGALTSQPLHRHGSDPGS

SMILES	IC50 (Cytochrome P450 1A2) [µM]	concentration at 1.5 h [1] [nM]	concentration at 1.5 h [2] [nM]	Kp at 1.5 h [3]	inhibition at 10 µM (hERG (KCNH2)) [%]	AUC [4] [ng·h/mL]	activation [5]	clearance [6] [mL/min/kg]	IC50 (D(2) dopamine receptor) [µM]	Fu (Plasma [7]) [%]	half-life [8] [min]	IC50 (Cytochrome P450 2D6) [µM]	Vd [9] [L/kg]	EC50 [10] [µM]	Fu (Plasma [11]) [%]	EC50 [12] [µM]	F (Rattus norvegicus) [%]	AUC [13] [ng·h/mL]	Activity [14]	IC50 (Cytochrome P450 2C9) [µM]
CCOC(=O)N1CCC(N2CCC[C@@H](NC(=O)c3ccccc3C)C2)CC1	> 25	1450	1890	1.35	22	4200	Active	14.7	> 30	14.9	46	> 25	0.98	> 30	5.8	> 30	37	1100	Active	> 25
CCOC(=O)N1CCC(NCCNC(=O)c2ccccc2C)CC1	–	–	–	–	–	–	–	–	4.5	–	–	–	–	> 30	–	> 30	–	–	–	–
